Molecular target: P. falciparum apicoplast DNA polymerase (Pf-apPOL) (Plasmodium falciparum, UniProt Q8ILY1)
Experiment: Fluorescence-based high-throughput DNA polymerase assay (molecular beacon), primary screen and dose-response;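 as to % inhibition ApPOL 90': test concentration in µM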;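 as to % inhibition apPOL 180': test concentration in µM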
Assay type: biochemical
Procedure, shortened: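 Single-point screening used 10 µM compound with 20 nM polymerase, 20 nM hairpin substrate and 6 µM dNTPs for 90 min at 25 °C. Confirmatory titrations (2.5–80 µM) followed fluorescence at three times, and IC50 was derived from a fit including a cooperativity term n.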

[1] = primary screen value of the 186 hits; unit not given; 90 min, 10 µM
[2] = DRC-2, 40', concentration 40 (unit not given)
[3] = DRC-2, 90', concentration 20 (unit not given)

P. falciparum apicoplast DNA polymerase (Pf-apPOL), sequence (Q8ILY1 entry or part of it): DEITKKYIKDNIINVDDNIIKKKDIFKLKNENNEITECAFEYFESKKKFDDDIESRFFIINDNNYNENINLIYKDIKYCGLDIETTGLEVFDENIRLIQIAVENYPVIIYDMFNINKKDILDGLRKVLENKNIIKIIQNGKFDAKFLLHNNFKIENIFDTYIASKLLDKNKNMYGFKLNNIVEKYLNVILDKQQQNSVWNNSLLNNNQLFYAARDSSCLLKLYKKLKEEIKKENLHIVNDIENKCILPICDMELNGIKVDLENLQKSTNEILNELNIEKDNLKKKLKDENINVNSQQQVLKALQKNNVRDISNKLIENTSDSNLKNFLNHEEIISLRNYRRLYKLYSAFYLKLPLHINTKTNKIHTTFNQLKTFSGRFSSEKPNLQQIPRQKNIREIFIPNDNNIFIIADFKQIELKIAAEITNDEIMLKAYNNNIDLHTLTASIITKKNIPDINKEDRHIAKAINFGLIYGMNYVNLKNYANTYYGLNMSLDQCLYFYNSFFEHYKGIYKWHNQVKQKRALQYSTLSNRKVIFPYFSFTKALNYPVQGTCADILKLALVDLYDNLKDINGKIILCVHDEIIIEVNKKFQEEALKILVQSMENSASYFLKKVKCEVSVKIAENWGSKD

## O=C1c2ccccc2C(=O)c2c1oc1c3c(ccc21)OCN(C1CCCC1)C3 [KU0064306]
DRC-1; concentration 2.5; 10'
  % inhibition Apo pol 10': 14.122%
DRC-1; concentration 2.5; 90'
  % inhibition Apol 90': 11.9333%
DRC-1; concentration 2.5; 180'
  % inhibition apPOL 180': 9.893%
DRC-1; concentration 5; 10'
  % inhibition Apo pol 10': 20.6805%
DRC-1; concentration 5; 90'
  % inhibition Apol 90': 18.9077%
DRC-1; concentration 5; 180'
  % inhibition apPOL 180': 20.5988%
DRC-1; concentration 10; 10'
  % inhibition Apo pol 10': 48.1868%
DRC-1; concentration 10; 90'
  % inhibition Apol 90': 43.2395%
DRC-1; concentration 10; 180'
  % inhibition apPOL 180': 45.5926%
DRC-1; concentration 20; 10'
  % inhibition Apo pol 10': 73.389%
DRC-1; concentration 20; 90'
  % inhibition Apol 90': 72.2655%
DRC-1; concentration 20; 180'
  % inhibition apPOL 180': 74.7554%
DRC-1; concentration 40; 10'
  % inhibition Apo pol 10': 87.7037%
DRC-1; concentration 40; 90'
  % inhibition Apol 90': 89.2086%
DRC-1; concentration 40; 180'
  % inhibition apPOL 180': 90.8162%
DRC-1; concentration 80 (unit not given); 10'
  % inhibition Apo pol 10': 89.3485%
DRC-1; concentration 80; 90'
  % inhibition Apol 90': 90.7443%
DRC-1; concentration 80; 180'
  % inhibition apPOL 180': 92.3974%
DRC-2; 5'; concentration 5
  % inhibition Apo pol 5': 23%
DRC-2; 5'; concentration 40
  % inhibition Apo pol 5': 47%
DRC-2; 40'; concentration 2.5
  % inhibition Apol 40': 17%
DRC-2; 40'; concentration 80
  % inhibition Apol 40': 60%
DRC-2; 90'; concentration 2.5
  % inhibition ApPOL 90': 17%
DRC-2; 90'; concentration 10
  % inhibition ApPOL 90': 47%
DRC-2; 90'; concentration 20
  % inhibition ApPOL 90': 60%
DRC-2; 180'; concentration 5
  % inhibition apPOL 180': 23%
DRC-2; 180'; concentration 10
  % inhibition apPOL 180': 47%
DRC-2; concentration 2.5; 5'
  % inhibition Apo pol 5': 16%
DRC-2; concentration 2.5; 40'
  % inhibition Apol 40': 17%
DRC-2; concentration 2.5; 90'
  % inhibition ApPOL 90': 17%
DRC-2; concentration 2.5; 180'
  % inhibition apPOL 180': 15%
DRC-2; concentration 5; 5'
  % inhibition Apo pol 5': 23%
DRC-2; concentration 5; 40'
  % inhibition Apol 40': 24%
DRC-2; concentration 5; 90'
  % inhibition ApPOL 90': 25%
DRC-2; concentration 5; 180'
  % inhibition apPOL 180': 23%
DRC-2; concentration 10; 5'
  % inhibition Apo pol 5': 42%
DRC-2; concentration 10; 40'
  % inhibition Apol 40': 46%
DRC-2; concentration 10; 90'
  % inhibition ApPOL 90': 47%
DRC-2; concentration 10; 180'
  % inhibition apPOL 180': 47%
DRC-2; concentration 20; 5'
  % inhibition Apo pol 5': 43%
DRC-2; concentration 20; 40'
  % inhibition Apol 40': 55%
DRC-2; concentration 20; 90'
  % inhibition ApPOL 90': 60%
DRC-2; concentration 20; 180'
  % inhibition apPOL 180': 63%
DRC-2; concentration 40; 5'
  % inhibition Apo pol 5': 47%
DRC-2; concentration 40; 40'
  % inhibition Apol 40': 62%
DRC-2; concentration 40; 90'
  % inhibition ApPOL 90': 68%
DRC-2; concentration 40; 180'
  % inhibition apPOL 180': 72%
DRC-2; concentration 80; 5'
  % inhibition Apo pol 5': 44%
DRC-2; concentration 80; 40'
  % inhibition Apol 40': 60%
DRC-2; concentration 80; 90'
  % inhibition ApPOL 90': 65%
DRC-2; concentration 80; 180'
  % inhibition apPOL 180': 70%
[1]
  DNA Pol: 61
Primary screen value; head prints only 'DNA Pol'; 90 min, 10 µM
  DNA Pol: 61

## CCOc1ccc(/C=C2\N=C(c3cc([N+](=O)[O-])cc([N+](=O)[O-])c3)OC2=O)cc1 [Molecule 97, CCOc1ccc(cc1)/C=C/1\N=C(OC1=O)c1cc(cc(c1)N(=O)=O)N(=O)=O]
'DNA Pol' of the 186 hits list (primary screen result); unit not given; 90 min, 10 µM
  DNA Pol: 62
DRC-1; 10'; concentration 2.5
  % inhibition Apo pol 10': 32.0109%
DRC-1; 10'; concentration 5
  % inhibition Apo pol 10': 55.2757%
DRC-1; 10'; concentration 10
  % inhibition Apo pol 10': 83.2599%
DRC-1; 10'; concentration 20
  % inhibition Apo pol 10': 91.8438%
DRC-1; 10'; concentration 40
  % inhibition Apo pol 10': 94.8761%
DRC-1; 10'; concentration 80
  % inhibition Apo pol 10': 92.0577%
DRC-1; 90'; concentration 2.5
  % inhibition Apol 90': 15.0386%
DRC-1; 90'; concentration 5
  % inhibition Apol 90': 31.639%
DRC-1; 90'; concentration 10
  % inhibition Apol 90': 61.0945%
DRC-1; 90'; concentration 20
  % inhibition Apol 90': 80.2984%
DRC-1; 90'; concentration 40
  % inhibition Apol 90': 94.8535%
DRC-1; 90'; concentration 80
  % inhibition Apol 90': 94.5175%
DRC-1; 180'; concentration 2.5
  % inhibition apPOL 180': 6.537%
DRC-1; 180'; concentration 5
  % inhibition apPOL 180': 16.2109%
DRC-1; 180'; concentration 10
  % inhibition apPOL 180': 41.6227%
DRC-1; 180'; concentration 20
  % inhibition apPOL 180': 66.1189%
DRC-1; 180'; concentration 40
  % inhibition apPOL 180': 93.496%
DRC-1; 180'; concentration 80
  % inhibition apPOL 180': 95.7221%
DRC-2, 40', concentration 20 (unit not given)
  % inhibition Apol 40': 68%
[2]
  % inhibition Apol 40': 76%
DRC-2, 40', concentration 80 (unit not given)
  % inhibition Apol 40': 76%
[3]
  % inhibition ApPOL 90': 68%
DRC-2, 180', concentration 20 (unit not given)
  % inhibition apPOL 180': 60%
DRC-2; 5'; concentration 2.5
  % inhibition Apo pol 5': 20%
DRC-2; 5'; concentration 5
  % inhibition Apo pol 5': 43%
DRC-2; 5'; concentration 10
  % inhibition Apo pol 5': 52%
DRC-2; 5'; concentration 20
  % inhibition Apo pol 5': 59%
DRC-2; 5'; concentration 40
  % inhibition Apo pol 5': 61%
DRC-2; 5'; concentration 80
  % inhibition Apo pol 5': 60%
DRC-2; 5'; concentration 80 (unit not given)
  % inhibition Apo pol 5': 60%
DRC-2; 40'; concentration 2.5
  % inhibition Apol 40': 14%
DRC-2; 40'; concentration 5
  % inhibition Apol 40': 38%
DRC-2; 40'; concentration 10
  % inhibition Apol 40': 47%
DRC-2; 40'; concentration 20
  % inhibition Apol 40': 68%
DRC-2; 40'; concentration 40
  % inhibition Apol 40': 76%
DRC-2; 40'; concentration 80
  % inhibition Apol 40': 76%
DRC-2; 90'; concentration 2.5
  % inhibition ApPOL 90': 9%
DRC-2; 90'; concentration 5
  % inhibition ApPOL 90': 33%
DRC-2; 90'; concentration 10
  % inhibition ApPOL 90': 42%
DRC-2; 90'; concentration 20
  % inhibition ApPOL 90': 68%
DRC-2; 90'; concentration 40
  % inhibition ApPOL 90': 79%
DRC-2; 90'; concentration 80
  % inhibition ApPOL 90': 80%
DRC-2; 180'; concentration 2.5
  % inhibition apPOL 180': 2.15%
DRC-2; 180'; concentration 5
  % inhibition apPOL 180': 19%
DRC-2; 180'; concentration 10
  % inhibition apPOL 180': 28%
DRC-2; 180'; concentration 20
  % inhibition apPOL 180': 60%
DRC-2; 180'; concentration 40
  % inhibition apPOL 180': 81%
DRC-2; 180'; concentration 80
  % inhibition apPOL 180': 84%
Primary screen value of the library well; unit not given; 90 min, 10 µM
  DNA Pol: 62

## O=C(Cc1cccs1)N1CCN(c2nc(CN3CCOCC3)cs2)CC1 [Molecule 35]
Supplemental file 2, sheet IC50 nontoxic compounds; Pf-apPOL
  IC50: 11.2 µM

## Cc1cccc(CC(=O)N2CCc3c(nc4cc(-c5ccccc5)[nH]n4c3=O)C2)c1 [Molecule 12, Cc1cccc(c1)CC(=O)N1CCc2c(C1)nc1n(c2=O)[nH]c(c1)c1ccccc1]
DRC-1; 10'; concentration 2.5
  % inhibition Apo pol 10': 15%
DRC-1; 10'; concentration 5
  % inhibition Apo pol 10': 48%
DRC-1; 10'; concentration 10
  % inhibition Apo pol 10': 68%
DRC-1; 10'; concentration 20
  % inhibition Apo pol 10': 81%
DRC-1; 10'; concentration 40
  % inhibition Apo pol 10': 86%
DRC-1; 10'; concentration 80
  % inhibition Apo pol 10': 83%
DRC-1; 90'; concentration 2.5
  % inhibition Apol 90': 3.59%
DRC-1; 90'; concentration 5
  % inhibition Apol 90': 28%
DRC-1; 90'; concentration 10
  % inhibition Apol 90': 50%
DRC-1; 90'; concentration 20
  % inhibition Apol 90': 69%
DRC-1; 90'; concentration 40
  % inhibition Apol 90': 81%
DRC-1; 90'; concentration 80
  % inhibition Apol 90': 85%
DRC-1; 180'; concentration 2.5
  % inhibition apPOL 180': -4%
DRC-1; 180'; concentration 5
  % inhibition apPOL 180': 13%
DRC-1; 180'; concentration 10
  % inhibition apPOL 180': 32%
DRC-1; 180'; concentration 20
  % inhibition apPOL 180': 55%
DRC-1; 180'; concentration 40
  % inhibition apPOL 180': 73%
DRC-1; 180'; concentration 80
  % inhibition apPOL 180': 82%
DRC-2, 5', concentration 10 (unit not given)
  % inhibition Apo pol 5': 44%
DRC-2, 5', concentration 40 (unit not given)
  % inhibition Apo pol 5': 48%
[2]
  % inhibition Apol 40': 66%
[3]
  % inhibition ApPOL 90': 66%
DRC-2, 90', concentration 40 (unit not given)
  % inhibition ApPOL 90': 70%
DRC-2, 180', concentration 10 (unit not given)
  % inhibition apPOL 180': 44%
DRC-2, 180', concentration 40 (unit not given)
  % inhibition apPOL 180': 70%
DRC-2, 180', concentration 80 (unit not given)
  % inhibition apPOL 180': 69%
DRC-2; 5'; concentration 2.5
  % inhibition Apo pol 5': 7%
DRC-2; 5'; concentration 5
  % inhibition Apo pol 5': 23%
DRC-2; 5'; concentration 10
  % inhibition Apo pol 5': 44%
DRC-2; 5'; concentration 20
  % inhibition Apo pol 5': 49%
DRC-2; 5'; concentration 40
  % inhibition Apo pol 5': 48%
DRC-2; 5'; concentration 80
  % inhibition Apo pol 5': 43%
DRC-2; 40'; concentration 2.5
  % inhibition Apol 40': 5.58%
DRC-2; 40'; concentration 5
  % inhibition Apol 40': 25%
DRC-2; 40'; concentration 10
  % inhibition Apol 40': 54%
DRC-2; 40'; concentration 20
  % inhibition Apol 40': 65%
DRC-2; 40'; concentration 40
  % inhibition Apol 40': 66%
DRC-2; 40'; concentration 80
  % inhibition Apol 40': 62%
DRC-2; 90'; concentration 2.5
  % inhibition ApPOL 90': 4.61%
DRC-2; 90'; concentration 5
  % inhibition ApPOL 90': 22%
DRC-2; 90'; concentration 10
  % inhibition ApPOL 90': 53%
DRC-2; 90'; concentration 20
  % inhibition ApPOL 90': 66%
DRC-2; 90'; concentration 40
  % inhibition ApPOL 90': 70%
DRC-2; 90'; concentration 80
  % inhibition ApPOL 90': 67%
DRC-2; 180'; concentration 2.5
  % inhibition apPOL 180': 2.3%
DRC-2; 180'; concentration 5
  % inhibition apPOL 180': 12%
DRC-2; 180'; concentration 10
  % inhibition apPOL 180': 44%
DRC-2; 180'; concentration 20
  % inhibition apPOL 180': 63%
DRC-2; 180'; concentration 40
  % inhibition apPOL 180': 70%
DRC-2; 180'; concentration 80
  % inhibition apPOL 180': 69%
First dose-response, 10', concentration 5 (unit not given)
  % inhibition Apo pol 10': 48%
First dose-response, 10', concentration 20 (unit not given)
  % inhibition Apo pol 10': 81%
First dose-response, 90', concentration 20 (unit not given)
  % inhibition Apol 90': 69%
First dose-response, 90', concentration 40 (unit not given)
  % inhibition Apol 90': 81%
[1]
  DNA Pol: 49
Primary screen value, head "DNA Pol", unit not given; 90 min, 10 µM
  DNA Pol: 49
